# Test results published in patent publication US20100298141A1, “SUBSTITUTED PYRIDINE N-OXIDE HERBICIDES” (E. I. DU PONT DE NEMOURS AND COMPANY, priority 2007, published 2010).
# Tests used:
# morningglory [1] = experiment: Test A pre-/postemergence greenhouse test; type: in vivo, Ipomoea spp.; details: for Morningglory plant response rating: 0 to 100 scale
# Procedure, shortened: (§1)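 Visual injury ratings, made relative to untreated controls roughly ten days after treatment, cover both preemergence and postemergence application. Compounds in a surfactant-containing non-phytotoxic solvent were sprayed onto the soil surface after sowing and, simultaneously, onto young plants at the one- to two-leaf stage.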
# cocklebur = experiment: Test C pre-/postemergence test; type: in vivo, Xanthium strumarium
# Procedure, shortened: (§2)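 Seeds were planted and treated preemergence with test chemical in a non-phytotoxic solvent mixture containing surfactant. Postemergence applications of the same formulation went onto plants 2 to 18 cm tall (1- to 4-leaf stage). A dash marks no test result.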
# johnsongrass = experiment: Test C pre-/postemergence test; type: in vivo, Sorghum halepense
# Procedure, shortened: as §2
# umbrella sedge = experiment: Test C flooded paddy test; type: in vivo, Cyperus difformis; details: Flood
# Procedure, shortened: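 In-water treatment: compound dosed into 3 cm flood over soil, water level unchanged throughout. Controls run alongside; visual assessment at day 13–15.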
# common ragweed = experiment: Test C pre-/postemergence test; type: in vivo, Ambrosia elation
# Procedure, shortened: as §2
# giant foxtail [2] = experiment: Test C pre-/postemergence test; type: in vivo, Setaria faberii
# Procedure, shortened: as §2
# downy brome = experiment: Test C pre-/postemergence test; type: in vivo, Bromus tectorum
# Procedure, shortened: as §2
# lambsquarters = experiment: Test C pre-/postemergence test; type: in vivo, Chenopodium album
# Procedure, shortened: as §2
# woolly cupgrass = experiment: Test C pre-/postemergence test; type: in vivo, Eriochloa villosa
# Procedure, shortened: as §2
# yellow nutsedge = experiment: Test C pre-/postemergence test; type: in vivo, Cyperus esculentus
# Procedure, shortened: as §2
# giant foxtail [3] = experiment: Test A pre-/postemergence greenhouse test; type: in vivo, Setaria faberi; details: for Foxtail, Giant plant response rating: 0 to 100 scale
# Procedure, shortened: as §1
# wheat = experiment: Test A pre-/postemergence greenhouse test; type: in vivo, Triticum aestivum; details: for Wheat plant response rating: 0 to 100 scale
# Procedure, shortened: as §1
# morningglory [4] = experiment: Test C pre-/postemergence test; type: in vivo, Ipomoea coccinea
# Procedure, shortened: as §2
# Goosegrass = experiment: Test C pre-/postemergence test; type: in vivo, Eleusin indica
# Procedure, shortened: as §2
# crabgrass = experiment: Test A pre-/postemergence greenhouse test; type: in vivo, Digitaria sanguinalis; details: for Crabgrass, Large plant response rating: 0 to 100 scale
# Procedure, shortened: as §1
# corn = experiment: Test C pre-/postemergence test; type: in vivo, Zea mays
# Procedure, shortened: as §2
# soybean = experiment: Test C pre-/postemergence test; type: in vivo, Glycine max
# Procedure, shortened: as §2
# [5] = Postemergence, 125 g ai/ha, 0 is no effect, 100 is complete control
# [6] = Postemergence, 500 g ai/ha, 0 is no effect, 100 is complete control
# [7] = Preemergence, 125 g ai/ha, 0 no effect, 100 complete control
# [8] = Preemergence, 500 g ai/ha, 0 to 100 scale where 0 is no effect and 100 is complete control
# [9] = 31 g ai/ha, Preemergence, scale 0 to 100
# [10] = 62 g ai/ha, preemergence, scale 0 (no effect) to 100 (complete control)
# [11] = preemergence, 125 g ai/ha, scale 0 (no effect) to 100 (complete control)
smiles,measurement,setting,value
Cn1nc(C(F)(F)F)c(C[S+]([O-])c2cccc[n+]2[O-])c1Cl (centres unmarked) [Compound 8],Morningglory plant response rating,morningglory [1]; [5],60
same,Morningglory plant response rating,morningglory [1]; [6],70
same,Morningglory plant response rating,morningglory [1]; [7],90
same,"Plant response rating, Morningglory",morningglory [1]; [8],90
same,Cocklebur plant response rating,cocklebur; [9],0
same,Cocklebur plant response rating,cocklebur; [10],0
same,"Plant response rating (0 to 100), Cocklebur","cocklebur; Preemergence, 250 g ai/ha",5
same,Cocklebur plant response rating,cocklebur; [11],0
same,Johnsongrass plant response rating,johnsongrass; [9],80
same,Johnsongrass plant response rating,johnsongrass; [10],85
same,"Plant response rating (0 to 100), Johnsongrass","johnsongrass; Preemergence, 250 g ai/ha",100
same,Johnsongrass plant response rating,johnsongrass; [11],85
same,"Plant response rating, Sedge, Umbrella","umbrella sedge; 31 g ai/ha, scale 0 to 100 (0 no effect, 100 complete control)",0
same,"Plant response rating, Sedge, Umbrella","umbrella sedge; 62 g ai/ha, scale 0 to 100, 0 no effect, 100 complete control, 13 to 15 days",0
same,"Plant response rating, Sedge, Umbrella","umbrella sedge; 125 g ai/ha, scale 0 to 100, 0 no effect, 100 complete control, 13 to 15 days",85
same,"Plant response rating, Sedge, Umbrella","umbrella sedge; 250 g ai/ha, scale 0 to 100 (0 no effect, 100 complete control)",100
same,Ragweed plant response rating,common ragweed; [9],50
same,Ragweed plant response rating,common ragweed; [10],60
same,"Plant response rating (0 to 100), Ragweed","common ragweed; Preemergence, 250 g ai/ha",90
same,Ragweed plant response rating,common ragweed; [11],60
same,"Foxtail, Giant plant response rating",giant foxtail [2]; [9],85
same,"Foxtail, Giant plant response rating",giant foxtail [2]; [10],98
same,"Plant response rating (0 to 100), Foxtail, Giant","giant foxtail [2]; Preemergence, 250 g ai/ha",100
same,"Foxtail, Giant plant response rating",giant foxtail [2]; [11],100
same,"Bromegrass, Downy plant response rating",downy brome; [9],0
same,"Bromegrass, Downy plant response rating",downy brome; [10],0
same,"Plant response rating (0 to 100), Bromegrass, Downy","downy brome; Preemergence, 250 g ai/ha",85
same,"Bromegrass, Downy plant response rating",downy brome; [11],80
same,Lambsquarters plant response rating,lambsquarters; [9],80
same,Lambsquarters plant response rating,lambsquarters; [10],98
same,"Plant response rating (0 to 100), Lambsquarters","lambsquarters; Preemergence, 250 g ai/ha",100
same,Lambsquarters plant response rating,lambsquarters; [11],100
same,"Cupgrass, Woolly plant response rating",woolly cupgrass; [9],70
same,"Cupgrass, Woolly plant response rating",woolly cupgrass; [10],98
same,"Plant response rating (0 to 100), Cupgrass, Woolly","woolly cupgrass; Preemergence, 250 g ai/ha",100
same,"Cupgrass, Woolly plant response rating",woolly cupgrass; [11],100
same,"Nutsedge, Yellow plant response rating",yellow nutsedge; [9],60
same,"Nutsedge, Yellow plant response rating",yellow nutsedge; [10],80
same,"Plant response rating (0 to 100), Nutsedge, Yellow","yellow nutsedge; Preemergence, 250 g ai/ha",100
same,"Nutsedge, Yellow plant response rating",yellow nutsedge; [11],100
same,"Foxtail, Giant plant response rating",giant foxtail [3]; [5],80
same,"Foxtail, Giant plant response rating",giant foxtail [3]; [6],90
same,"Foxtail, Giant plant response rating",giant foxtail [3]; [7],100
same,"Plant response rating, Foxtail, Giant",giant foxtail [3]; [8],100
same,Wheat plant response rating,wheat; [5],30
same,Wheat plant response rating,wheat; [6],60
same,Wheat plant response rating,wheat; [7],60
same,"Plant response rating, Wheat",wheat; [8],70
same,Morningglory plant response rating,morningglory [4]; [9],5
same,Morningglory plant response rating,morningglory [4]; [10],90
same,"Plant response rating (0 to 100), Morningglory","morningglory [4]; Preemergence, 250 g ai/ha",100
same,Morningglory plant response rating,morningglory [4]; [11],100
same,Goosegrass plant response rating,Goosegrass; [9],98
same,Goosegrass plant response rating,Goosegrass; [10],100
same,"Plant response rating (0 to 100), Goosegrass","Goosegrass; Preemergence, 250 g ai/ha",100
same,Goosegrass plant response rating,Goosegrass; [11],100
same,"Crabgrass, Large plant response rating",crabgrass; [5],80
same,"Crabgrass, Large plant response rating",crabgrass; [6],90
same,"Crabgrass, Large plant response rating",crabgrass; [7],90
same,"Plant response rating, Crabgrass, Large",crabgrass; [8],100
same,Corn plant response rating,corn; [9],60
same,Corn plant response rating,corn; [10],80
same,"Plant response rating (0 to 100), Corn","corn; Preemergence, 250 g ai/ha",98
same,Corn plant response rating,corn; [11],95
same,Soybean plant response rating,soybean; [9],0
same,Soybean plant response rating,soybean; [10],0
same,"Plant response rating (0 to 100), Soybean","soybean; Preemergence, 250 g ai/ha",90
same,Soybean plant response rating,soybean; [11],80
